# Test results taken from ChEMBL document CHEMBL3868595, “Plazomicin is effective in a non-human primate pneumonic plague model” (Bioorg Med Chem, 2016).
# Columns and labels:
# [1] = system: Yersinia pestis; assay: Antibacterial activity against Yersinia pestis Colorado 92 infected in African green monkey B6873 model assessed as bacterial burden in kidney at 12.5 mg/kg, iv administered within 6 hrs post onset of sustained fever as 30 mins infusion for 5 days (reference value: 7.1 10^7CFU/g); format: functional, organism-based; conditions: CO92
# [2] = system: Yersinia pestis; assay: Antibacterial activity against Yersinia pestis Colorado 92 infected in African green monkey B6469 model assessed as bacterial burden in liver at 25 mg/kg, iv administered within 6 hrs post onset of sustained fever as 30 mins infusion for 5 days (reference value: 5.2 10^8CFU/g); format: functional, organism-based; conditions: CO92
# [3] = system: Yersinia pestis; assay: Antibacterial activity against Yersinia pestis Colorado 92 infected in African green monkey 8047 model assessed as bacterial burden in lung at 6.25 mg/kg, iv administered within 6 hrs post onset of sustained fever as 30 mins infusion for 10 days (reference value: 7.7 10^8CFU/g); format: functional, CO92
# [4] = system: Yersinia pestis; assay: Antibacterial activity against Yersinia pestis Colorado 92 infected in African green monkey B6415 model assessed as bacterial burden in liver at 25 mg/kg, iv administered within 6 hrs post onset of sustained fever as 30 mins infusion for 5 days (reference value: 5.2 10^8CFU/g); format: functional, CO92
# [5] = system: African green monkey; assay: Toxicity in African green monkey 7337 model infected with Yersinia pestis Colorado 92 assessed as serum lactate dehydrogenase level at 25 mg/kg, iv administered within 6 hrs post onset of sustained fever as 30 mins infusion for 10 days (reference value: 310 IU/L); format: organism-based; conditions: chlorocebus sabaeus, in vivo
# [6] = system: African green monkey; assay: Toxicity in African green monkey B6127 model infected with Yersinia pestis Colorado 92 assessed as effect on serum electrolyte abnormality at 25 mg/kg, iv administered within 6 hrs post onset of sustained fever as 30 mins infusion for 10 days; format: organism-based; conditions: chlorocebus sabaeus, in vivo
# [7] = system: African green monkey; assay: Toxicity in African green monkey B5994 model infected with Yersinia pestis Colorado 92 assessed as blood urea nitrogen level at 25 mg/kg, iv administered within 6 hrs post onset of sustained fever as 30 mins infusion for 10 days (reference value: 15 mg/dl); format: organism-based; conditions: chlorocebus sabaeus, in vivo
# [8] = system: Yersinia pestis; assay: Antibacterial activity against Yersinia pestis Colorado 92 infected in African green monkey B6783 model assessed as bacterial burden in lung at 12.5 mg/kg, iv administered within 6 hrs post onset of sustained fever as 30 mins infusion for 5 days (reference value: 7.7 10^8CFU/g); format: functional, CO92
# [9] = system: African green monkey; assay: Toxicity in African green monkey B6127 model infected with Yersinia pestis Colorado 92 assessed as dehydration at 25 mg/kg, iv administered within 6 hrs post onset of sustained fever as 30 mins infusion for 10 days; format: organism-based; conditions: chlorocebus sabaeus, in vivo
# [10] = system: Yersinia pestis; assay: Antibacterial activity against Yersinia pestis Colorado 92 infected in African green monkey B6127 model assessed as bacterial burden in blood at 25 mg/kg, iv administered within 6 hrs post onset of sustained fever as 30 mins infusion for 10 days (reference value: 1.2 10^7CFU/ml); format: functional, organism-based; conditions: CO92
# [11] = AUC (0 to 24 hrs) in African green monkey blood at 25 mg/kg administered as iv infusion twice daily for 7 consecutive days measured on day 7 by LC-MS/MS analysis; format: ADME, organism-based; design: time < 24 hr, dose 25 mg/kg, route intravenous; conditions: chlorocebus aethiops
# [12] = system: African green monkey; assay: Toxicity in African green monkey 7337 model infected with Yersinia pestis Colorado 92 assessed as serum creatinine level at 25 mg/kg, iv administered within 6 hrs post onset of sustained fever as 30 mins infusion for 10 days (reference value: 0.7 mg/dl); format: organism-based; conditions: chlorocebus sabaeus, in vivo
# [13] = system: Yersinia pestis; assay: Antibacterial activity against Yersinia pestis Colorado 92 infected in African green monkey B6960 model assessed as bacterial burden in spleen at 6.25 mg/kg, iv administered within 6 hrs post onset of sustained fever as 30 mins infusion for 5 days (reference value: 1.6 10^9CFU/g); format: functional, CO92
# [14] = system: Yersinia pestis; assay: Antibacterial activity against Yersinia pestis Colorado 92 infected in African green monkey 8047 model assessed as bacterial burden in brain at 6.25 mg/kg, iv administered within 6 hrs post onset of sustained fever as 30 mins infusion for 10 days (reference value: 1.9 10^6CFU/g); format: functional, CO92
# [15] = system: Yersinia pestis; assay: Antibacterial activity against Yersinia pestis Colorado 92 infected in African green monkey B6873 model assessed as bacterial burden in brain at 12.5 mg/kg, iv administered within 6 hrs post onset of sustained fever as 30 mins infusion for 5 days (reference value: 1.9 10^6CFU/g); format: functional, CO92
# [16] = system: African green monkey; assay: Toxicity in African green monkey B6140 model infected with Yersinia pestis Colorado 92 assessed as serum lactate dehydrogenase level at 25 mg/kg, iv administered within 6 hrs post onset of sustained fever as 30 mins infusion for 10 days (reference value: 290 IU/L); format: organism-based; conditions: chlorocebus sabaeus, in vivo
# [17] = Toxicity in African green monkey 7337 model infected with Yersinia pestis Colorado 92 assessed as total white blood cell count at 25 mg/kg, iv administered within 6 hrs post onset of sustained fever as 30 mins infusion for 10 days (reference value: 7.5 10^3/microL); format: organism-based; conditions: chlorocebus aethiops, in vivo
# [18] = system: African green monkey; assay: Toxicity in African green monkey 7643 model infected with Yersinia pestis Colorado 92 assessed as serum lactate dehydrogenase level at 25 mg/kg, iv administered within 6 hrs post onset of sustained fever as 30 mins infusion for 10 days (reference value: 278 IU/L); format: organism-based; conditions: chlorocebus sabaeus, in vivo
# [19] = Toxicity in African green monkey 7653 model infected with Yersinia pestis Colorado 92 assessed as total white blood cell count at 25 mg/kg, iv administered within 6 hrs post onset of sustained fever as 30 mins infusion for 10 days (reference value: 7.5 10^3/microL); format: organism-based; conditions: chlorocebus aethiops, in vivo
# [20] = system: African green monkey; assay: Toxicity in African green monkey B6428 model infected with Yersinia pestis Colorado 92 assessed as serum alanine aminotransferase level at 25 mg/kg, iv administered within 6 hrs post onset of sustained fever as 30 mins infusion for 10 days (reference value: 83 IU/L); format: organism-based; conditions: chlorocebus sabaeus, in vivo
# [21] = system: African green monkey; assay: Toxicity in African green monkey B6408 model infected with Yersinia pestis Colorado 92 assessed as serum gamma glutamyl-transferase level at 25 mg/kg, iv administered within 6 hrs post onset of sustained fever as 30 mins infusion for 10 days (reference value: 53 IU/L); format: organism-based; conditions: chlorocebus sabaeus, in vivo
# [22] = system: African green monkey; assay: Toxicity in African green monkey B6291 model infected with Yersinia pestis Colorado 92 assessed as blood urea nitrogen level at 25 mg/kg, iv administered within 6 hrs post onset of sustained fever as 30 mins infusion for 10 days (reference value: 24 mg/dl); format: organism-based; conditions: chlorocebus sabaeus, in vivo
# [23] = system: African green monkey; assay: Toxicity in African green monkey assessed as effect on serum creatinine level at 35 mg/kg administered as iv infusion twice daily for 7 consecutive days measured on day 7 by LC-MS/MS analysis; format: organism-based; conditions: chlorocebus sabaeus, in vivo
# [24] = system: African green monkey; assay: Toxicity in African green monkey 7972 model infected with Yersinia pestis Colorado 92 assessed as serum gamma glutamyl-transferase level at 25 mg/kg, iv administered within 6 hrs post onset of sustained fever as 30 mins infusion for 10 days (reference value: 46 IU/L); format: organism-based; conditions: chlorocebus sabaeus, in vivo
# [25] = system: African green monkey; assay: Toxicity in African green monkey B6140 model infected with Yersinia pestis Colorado 92 assessed as serum creatinine level at 25 mg/kg, iv administered within 6 hrs post onset of sustained fever as 30 mins infusion for 10 days (reference value: 0.8 mg/dl); format: organism-based; conditions: chlorocebus sabaeus, in vivo
# [26] = system: Yersinia pestis; assay: Antibacterial activity against Yersinia pestis Colorado 92 infected in African green monkey B6889 model assessed as bacterial burden in heart at 6.25 mg/kg, iv administered within 6 hrs post onset of sustained fever as 30 mins infusion for 5 days (reference value: 2.6 10^7CFU/g); format: functional, CO92
smiles,measurement,setting,value
CN[C@@H]1[C@@H](O)[C@@H](O[C@@H]2[C@@H](O)[C@H](O[C@H]3OC(CNCCO)=CC[C@H]3N)[C@@H](N)C[C@H]2NC(=O)[C@@H](O)CCN)OC[C@]1(C)O [PLAZOMICIN],Activity,[1],Below limit of detection
same,Activity,[2],Below limit of detection
same,Activity,[3],6.6 ×10⁹ CFU/g
same,Activity,[4],2 ×10⁶ CFU/g
same,Activity,[5],469 IU/L
same,Activity,[6],Toxic
same,Activity,[7],18 mg/dL
same,Activity,[8],2.8 ×10⁹ CFU/g
same,Activity,[9],Toxic
same,Activity,[10],Below limit of detection
same,AUC at 24 h,[11],208 µg·h/mL
same,Activity,[12],0.5 mg/dL
same,Activity,[13],23 CFU/g
same,Activity,[14],60 CFU/g
same,Activity,[15],44 CFU/g
same,Activity,[16],379 IU/L
same,Activity,[17],5 ×10³ /uL
same,Activity,[18],606 IU/L
same,Activity,[19],5.8 ×10³ /uL
same,Activity,[20],60 IU/L
same,Activity,[21],56 IU/L
same,Activity,[22],21 mg/dL
same,Activity,[23],0.6 mg/dL
same,Activity,[24],38 IU/L
same,Activity,[25],0.7 mg/dL
same,Activity,[26],1 ×10⁶ CFU/g
